{"source": "patent US8530463B2", "about": "“Multimodal particulate formulations” (Hale Biopharma Ventures LLC, priority 2007, dated 2013)", "origin": "cited, not measured here"}
{"compound": "Cc1ncc2n1-c1ccc(Cl)cc1C(c1ccccc1F)=NC2", "note": "[Midazolam, 8-chloro-6-(2-fluorophenyl)-1-methyl-4H-imidazo[1,5-a]benzodiazepine]", "values": [{"measurement": "solubility in most aqueous solutions", "setting": "neutral pH (e.g. about 6 to 8)", "value": "relatively insoluble"}, {"measurement": "solubility in water", "setting": "pH lower than about 4", "value": "soluble"}]}
